Tested on: 454973-116-R2-J3-PDC spheroids, viability, % test/control
Experiment: Anticancer human tumor 454973-116-R2-J3-PDC patient-derived pancreatic carcinoma cell line growth inhibition [GQUAD]
Conditions: spheroids with HUVEC and MSC; for IC50: curve of first compound; for viability, T/C: stronger effect = lower value
Outline: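 Viability of tumor cells grown as complex spheroids with endothelial and stromal cells, exposed to drug combinations. Top concentration at or near clinical Cmax (else 10 microM), diluted in half-log increments.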

[1] = second compound 0.0316 µM, first compound 0.0316 µM
[2] = second compound 0.0316 µM, first compound 0.316 µM
[3] = second compound 0.1 µM, first compound 0.0316 µM
[4] = second compound 0.1 µM, first compound 0.316 µM
[5] = second compound 0.316 µM, first compound 0.0316 µM
[6] = second compound 0.316 µM, first compound 0.316 µM
[7] = second compound 1 µM, first compound 0.0316 µM
[8] = second compound 1 µM, first compound 0.316 µM
[9] = second compound 3.16 µM, first compound 0.0316 µM
[10] = second compound 3.16 µM, first compound 0.316 µM
[11] = second compound 10 µM, first compound 0.0316 µM
[12] = second compound 10 µM, first compound 0.316 µM
[13] = second compound 0.0316 µM, first compound 0.1 µM
[14] = second compound 0.0316 µM, first compound 1 µM
[15] = second compound 0.0316 µM, first compound 3.16 µM
[16] = second compound 0.0316 µM, first compound 10 µM
[17] = second compound 0.1 µM, first compound 0.1 µM
[18] = second compound 0.1 µM, first compound 1 µM
[19] = second compound 0.1 µM, first compound 3.16 µM
[20] = second compound 0.1 µM, first compound 10 µM
[21] = second compound 0.316 µM, first compound 0.1 µM
[22] = second compound 0.316 µM, first compound 1 µM
[23] = second compound 0.316 µM, first compound 3.16 µM
[24] = second compound 0.316 µM, first compound 10 µM
[25] = second compound 1 µM, first compound 0.1 µM
[26] = second compound 1 µM, first compound 1 µM
[27] = second compound 1 µM, first compound 3.16 µM
[28] = second compound 1 µM, first compound 10 µM
[29] = second compound 3.16 µM, first compound 0.1 µM
[30] = second compound 3.16 µM, first compound 1 µM
[31] = second compound 3.16 µM, first compound 3.16 µM
[32] = second compound 3.16 µM, first compound 10 µM
[33] = second compound 10 µM, first compound 0.1 µM
[34] = second compound 10 µM, first compound 1 µM
[35] = second compound 10 µM, first compound 3.16 µM
[36] = second compound 10 µM, first compound 10 µM
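Further: spheroids exposed to compounds for seven days.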
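Wherever viability, T/C is given: 100% = DMSO vehicle control viability.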

CC[C@@]1(O)C(=O)OCc2c1cc1n(c2=O)Cc2cc3c(CN(C)C)c(O)ccc3nc2-1 + Cc1[nH]c2ccc(F)cc2c1-c1nc2c3cccnc3c3ncccc3c2[nH]1
IC50 (second compound 0.0316 µM): 52.7 nM | IC50 (second compound 0.1 µM): 47.8 nM | IC50 (second compound 0.316 µM): 45.4 nM | IC50 (second compound 1 µM): 44.3 nM | IC50 (second compound 3.16 µM): 52.3 nM | IC50 (second compound 10 µM): 37.9 nM | viability, T/C (second compound 0.0316 µM, first compound 0.000999 µM): 97.3% | viability, T/C (second compound 0.0316 µM, first compound 0.00316 µM): 95.9% | viability, T/C (second compound 0.0316 µM, first compound 0.00999 µM): 94.7% | viability, T/C [1]: 69.2% | viability, T/C (second compound 0.0316 µM, first compound 0.0999 µM): 25% | viability, T/C [2]: 26.9% | viability, T/C (second compound 0.1 µM, first compound 0.000999 µM): 114% | viability, T/C (second compound 0.1 µM, first compound 0.00316 µM): 93.7% | viability, T/C (second compound 0.1 µM, first compound 0.00999 µM): 102% | viability, T/C [3]: 66% | viability, T/C (second compound 0.1 µM, first compound 0.0999 µM): 20.8% | viability, T/C [4]: 21.8% | viability, T/C (second compound 0.316 µM, first compound 0.000999 µM): 102% | viability, T/C (second compound 0.316 µM, first compound 0.00316 µM): 119% | viability, T/C (second compound 0.316 µM, first compound 0.00999 µM): 92.7% | viability, T/C [5]: 65% | viability, T/C (second compound 0.316 µM, first compound 0.0999 µM): 19.7% | viability, T/C [6]: 20.7% | viability, T/C (second compound 1 µM, first compound 0.000999 µM): 103% | viability, T/C (second compound 1 µM, first compound 0.00316 µM): 99.3% | viability, T/C (second compound 1 µM, first compound 0.00999 µM): 94.6% | viability, T/C [7]: 62.4% | viability, T/C (second compound 1 µM, first compound 0.0999 µM): 19.6% | viability, T/C [8]: 20.7% | viability, T/C (second compound 3.16 µM, first compound 0.000999 µM): 97.7% | viability, T/C (second compound 3.16 µM, first compound 0.00316 µM): 101% | viability, T/C (second compound 3.16 µM, first compound 0.00999 µM): 85% | viability, T/C [9]: 70.9% | viability, T/C (second compound 3.16 µM, first compound 0.0999 µM): 20.8% | viability, T/C [10]: 25.2% | viability, T/C (second compound 10 µM, first compound 0.000999 µM): 100% | viability, T/C (second compound 10 µM, first compound 0.00316 µM): 83.9% | viability, T/C (second compound 10 µM, first compound 0.00999 µM): 82.3% | viability, T/C [11]: 56.7% | viability, T/C (second compound 10 µM, first compound 0.0999 µM): 23.2% | viability, T/C [12]: 23%

COc1cc(C2c3cc4c(cc3C(OC3OC5COC(C)OC5C(O)C3O)C3COC(=O)C23)OCO4)cc(OC)c1O (stereo not given) + Cc1cnc(CNC(=O)c2c(=O)c3ccc(N4CCCN(C)CC4)nc3n3c2sc2ccccc23)cn1
IC50 (second compound 0.0316 µM): 644 nM | IC50 (second compound 0.1 µM): 507 nM | IC50 (second compound 0.316 µM): 469 nM | IC50 (second compound 1 µM): 1060 nM | IC50 (second compound 3.16 µM): 1800 nM | IC50 (second compound 10 µM): < 31.6 nM | viability, T/C [1]: 100% | viability, T/C [13]: 80.6% | viability, T/C [2]: 70.7% | viability, T/C [14]: 39.3% | viability, T/C [15]: 17.8% | viability, T/C [16]: 12.4% | viability, T/C [3]: 85% | viability, T/C [17]: 73.7% | viability, T/C [4]: 59.2% | viability, T/C [18]: 35% | viability, T/C [19]: 28.6% | viability, T/C [20]: 12% | viability, T/C [5]: 75.6% | viability, T/C [21]: 73.9% | viability, T/C [6]: 53% | viability, T/C [22]: 38% | viability, T/C [23]: 29.4% | viability, T/C [24]: 16.7% | viability, T/C [7]: 67.8% | viability, T/C [25]: 61.8% | viability, T/C [8]: 55.9% | viability, T/C [26]: 51.5% | viability, T/C [27]: 40.5% | viability, T/C [28]: 21.9% | viability, T/C [9]: 66.9% | viability, T/C [29]: 68.4% | viability, T/C [10]: 58.3% | viability, T/C [30]: 53.7% | viability, T/C [31]: 47.5% | viability, T/C [32]: 31.3% | viability, T/C [11]: 16.2% | viability, T/C [33]: 17.1% | viability, T/C [12]: 58.4% | viability, T/C [34]: 49.7% | viability, T/C [35]: 29.3% | viability, T/C [36]: 0.59%

O=C(c1cc(Cc2n[nH]c(=O)c3ccccc23)ccc1F)N1CCN(C(=O)C2CC2)CC1 + Cc1[nH]c2ccc(F)cc2c1-c1nc2c3cccnc3c3ncccc3c2[nH]1
IC50 (second compound 0.0316 µM): > 10000 nM | IC50 (second compound 0.1 µM): > 10000 nM | IC50 (second compound 0.316 µM): > 10000 nM | IC50 (second compound 1 µM): > 10000 nM | IC50 (second compound 3.16 µM): > 10000 nM | IC50 (second compound 10 µM): > 10000 nM | viability, T/C [1]: 98.5% | viability, T/C [13]: 89.7% | viability, T/C [2]: 101% | viability, T/C [14]: 100% | viability, T/C [15]: 79.8% | viability, T/C [16]: 60.8% | viability, T/C [3]: 109% | viability, T/C [17]: 97.3% | viability, T/C [4]: 93.2% | viability, T/C [18]: 94.6% | viability, T/C [19]: 94.9% | viability, T/C [20]: 58.1% | viability, T/C [5]: 97.6% | viability, T/C [21]: 103% | viability, T/C [6]: 93% | viability, T/C [22]: 91.7% | viability, T/C [23]: 77.6% | viability, T/C [24]: 58.1% | viability, T/C [7]: 97.2% | viability, T/C [25]: 99.8% | viability, T/C [8]: 87.5% | viability, T/C [26]: 88% | viability, T/C [27]: 75.8% | viability, T/C [28]: 65.5% | viability, T/C [9]: 87.4% | viability, T/C [29]: 107% | viability, T/C [10]: 84% | viability, T/C [30]: 87.7% | viability, T/C [31]: 77.6% | viability, T/C [32]: 63.3% | viability, T/C [11]: 94.1% | viability, T/C [33]: 81.4% | viability, T/C [12]: 90.9% | viability, T/C [34]: 79.6% | viability, T/C [35]: 73.2% | viability, T/C [36]: 61.5%

O=c1[nH]cc(F)c(=O)[nH]1 + Cc1[nH]c2ccc(F)cc2c1-c1nc2c3cccnc3c3ncccc3c2[nH]1
IC50 (second compound 0.0316 µM): 2250 nM | IC50 (second compound 0.1 µM): 1530 nM | IC50 (second compound 0.316 µM): 2190 nM | IC50 (second compound 1 µM): 2360 nM | IC50 (second compound 3.16 µM): 1920 nM | IC50 (second compound 10 µM): 1880 nM | viability, T/C [1]: 116% | viability, T/C [13]: 115% | viability, T/C [2]: 109% | viability, T/C [14]: 77.9% | viability, T/C [15]: 34.5% | viability, T/C [16]: 42.2% | viability, T/C [3]: 105% | viability, T/C [17]: 109% | viability, T/C [4]: 109% | viability, T/C [18]: 57.5% | viability, T/C [19]: 33.7% | viability, T/C [20]: 40.5% | viability, T/C [5]: 107% | viability, T/C [21]: 110% | viability, T/C [6]: 105% | viability, T/C [22]: 78.9% | viability, T/C [23]: 31.8% | viability, T/C [24]: 41.1% | viability, T/C [7]: 99.2% | viability, T/C [25]: 97.2% | viability, T/C [8]: 95.4% | viability, T/C [26]: 79.1% | viability, T/C [27]: 33.9% | viability, T/C [28]: 46.3% | viability, T/C [9]: 96.5% | viability, T/C [29]: 96.1% | viability, T/C [10]: 99.9% | viability, T/C [30]: 65.1% | viability, T/C [31]: 31.4% | viability, T/C [32]: 45.6% | viability, T/C [11]: 93.5% | viability, T/C [33]: 87.7% | viability, T/C [12]: 102% | viability, T/C [34]: 63.7% | viability, T/C [35]: 30.9% | viability, T/C [36]: 46.6%

CCCS(=O)(=O)Nc1ccc(F)c(C(=O)c2c[nH]c3ncc(-c4ccc(Cl)cc4)cc23)c1F + Cc1cnc(CNC(=O)c2c(=O)c3ccc(N4CCCN(C)CC4)nc3n3c2sc2ccccc23)cn1
IC50 (second compound 0.0316 µM): 6440 nM | IC50 (second compound 0.1 µM): 5990 nM | IC50 (second compound 0.316 µM): 5080 nM | IC50 (second compound 1 µM): 4250 nM | IC50 (second compound 3.16 µM): 5130 nM | IC50 (second compound 10 µM): < 31.6 nM | viability, T/C [1]: 94.2% | viability, T/C [13]: 105% | viability, T/C [2]: 117% | viability, T/C [14]: 106% | viability, T/C [15]: 117% | viability, T/C [16]: 14.1% | viability, T/C [3]: 77.4% | viability, T/C [17]: 88% | viability, T/C [4]: 99% | viability, T/C [18]: 94.6% | viability, T/C [19]: 95.2% | viability, T/C [20]: 17.3% | viability, T/C [5]: 70.7% | viability, T/C [21]: 73.4% | viability, T/C [6]: 79.5% | viability, T/C [22]: 96% | viability, T/C [23]: 70.9% | viability, T/C [24]: 20.2% | viability, T/C [7]: 65.9% | viability, T/C [25]: 71.9% | viability, T/C [8]: 80.2% | viability, T/C [26]: 66.4% | viability, T/C [27]: 60.2% | viability, T/C [28]: 21.9% | viability, T/C [9]: 55.1% | viability, T/C [29]: 62.2% | viability, T/C [10]: 72.3% | viability, T/C [30]: 67.9% | viability, T/C [31]: 68.3% | viability, T/C [32]: 29.2% | viability, T/C [11]: 0.45% | viability, T/C [33]: 18.1% | viability, T/C [12]: 28.6% | viability, T/C [34]: 35.6% | viability, T/C [35]: 0.54% | viability, T/C [36]: 0.2%

Reference: PubChem BioAssay AID2060508 (Molecular Pharmacology Branch, DTP, NCI, 2025)
